Source: patent US10059741B2 (priority 2015, dated 2018)
Like-named read-outs stand apart in the source and are kept apart here. Bridge positions count the residues as written; N and C are the ends. Square brackets hold non-standard residues; d marks the D form. Peptide text beside a SMILES is read from it. R8 = C=CCCCCCC[C@@](C)(N)C(=O)O; S5 = C=CCCC[C@](C)(N)C(=O)O; Nle = CCCC[C@H](N)C(=O)O; Aib = CC(C)(N)C(=O)O

Assays:
H3N2 Perth/16/2009 [1] = assay: microbe, parasite or virus in culture; assay type: cell-based, influenza A virus
H1N1 California/07/2009 [2] = assay: microbe, parasite or virus in culture; assay type: cell-based, influenza A virus; details: for EC90: Drug Assay Visual/Neutral Red
in vitro = details: dog
H1N1 California/07/2009 [3] = assay: microbe, parasite or virus in culture; assay type: cell-based, influenza A virus
[4] = system: influenza virus, various viral strains; assay: organism not typed; assay type: cell-based; details: read-out: EC50
[5] = system: H5N1 A/Hong Kong/213/2003; assay: microbe, parasite or virus in culture; assay type: cell-based, influenza A virus; details: read-out: EC50
H3N2 Perth/16/2009 [6] = assay: microbe, parasite or virus in culture; assay type: cell-based, influenza A virus; details: for EC90: Drug Assay Visual/Neutral Red
[7] = system: influenza virus, various viral strains; assay type: cell-based; details: VYR/Neutral Red
H7N9 A/Anhui/1/2013 = assay: microbe, parasite or virus in culture; assay type: cell-based, influenza A virus; details: read-out: EC50
[8] = system: H1N1 A/Solomon Island/03/2006; assay type: cell-based, influenza A virus; details: Influenza A H1N1 A/Solomon Is./3/2006-M; Drug Assay Neutral Red; read-out: EC50
[9] = Cytopathic effect/toxicity (Visual), MDCK cells, read-out: EC50 (μM) H3N2 Perth/16/2009
[10] = Influenza A H3N2 Perth/16/2006 (so in the source), Drug Assay Visual, read-out: EC50
[11] = Cytopathic effect/toxicity (Neutral red), MDCK cells, read-out: EC50 (μM) H1N1 California/07/2009
[12] = Influenza A H1N1 California/07/20/09 (so in the source), later run, Drug Assay Neutral Red, read-out: EC50
[13] = Influenza A H1N1 California/07/20/09 (so in the source)
[14] = Influenza A H1N1 California/07/2009, Drug Assay Neutral Red, read-out: EC50
[15] = CC50 (μM) H1N1 California/07/2009, Cell cytotoxicity (CC), run with H1N1 California/07/2009
[16] = CC50 (μM) H3N2 Perth/16/2009, Cell cytotoxicity (CC), run with H3N2 Perth/16/2009
[17] = CC50, run with Influenza A H1N1 A/Solomon Is./3/2006-M, Neutral Red
[18] = CC50, run with Influenza A H1N1 A/Solomon Is./3/2006-M, Visual
[19] = CC50, run with Influenza A H1N1 California/07/20/09 (so in the source), later run, Neutral Red
[20] = CC50, run with Influenza A H1N1 California/07/20/09 (so in the source), Visual/Neutral Red
[21] = CC50, run with Influenza A H1N1 California/07/2009, Neutral Red
[22] = CC50, run with Influenza A H3N2 Perth/16/2006 (so in the source), Neutral Red
[23] = CC50, run with Influenza A H3N2 Perth/16/2006 (so in the source), Visual
[24] = CC50, run with Influenza A H3N2 Perth/16/2009, last run, Neutral Red
[25] = CC50, run with Influenza A H3N2 Perth/16/2009, Visual/Neutral Red
[26] = Cytopathic effect/toxicity (Visual), MDCK cells, read-out: EC50 (μM) H1N1 California/07/2009
[27] = Influenza A H1N1 A/Solomon Is./3/2006-M, Drug Assay Visual
[28] = Cytopathic effect/toxicity (Neutral red), MDCK cells, read-out: EC50 (μM) H3N2 Perth/16/2009
[29] = Influenza A H3N2 Perth/16/2006 (so in the source), Drug Assay Neutral Red, read-out: EC50
[30] = Influenza A H3N2 Perth/16/2009, last run, Drug Assay Neutral Red, read-out: EC50

Row | SMILES | EC50 (H3N2 Perth/16/2009 [1]; [9]) | EC50 (H3N2 Perth/16/2009 [1]; [10]) | EC50 (H1N1 California/07/2009 [2]; [11]) | EC50 (H1N1 California/07/2009 [2]; [12]) | EC90 (H1N1 California/07/2009 [2]; [13]) | EC50 (H1N1 California/07/2009 [2]; [14]) | CC50 (in vitro; CC50) | CC50 (in vitro; [15]) | CC50 (in vitro; [16]) | CC50 (in vitro; [17]) | CC50 (in vitro; [18]) | CC50 (in vitro; [19]) | CC50 (in vitro; [20]) | CC50 (in vitro; [21]) | CC50 (in vitro; [22]) | CC50 (in vitro; [23]) | CC50 (in vitro; [24]) | CC50 (in vitro; [25]) | EC50 (H1N1 California/07/2009 [3]; [26]) | EC50 [4, 27] | also measured
1 | CCCC[C@H](NC(C)=O)C(=O)N[C@@H](CC(=O)O)C(=O)N[C@H](C(=O)N[C@@H](CC(N)=O)C(=O)N[C@]1(C)CCCCCCC=CCCC[C@@](C)(C(=O)N[C@@H](C)C(=O)N[C@@H](C)C(=O)N[C@@H](CCC(N)=O)C(N)=O)NC(=O)[C@H](C)NC(=O)[C@H](CC(C)C)NC(=O)[C@H](Cc2ccccc2)NC(=O)[C@H](CC(C)C)NC(=O)[C@H](CC(C)C)NC(=O)[C@H]([C@@H](C)O)NC1=O)C(C)C [SP-18] (Ac-[Nle]DVN[R8]TLLFLA[S5]AAQ-NH2; staple 5-12) | 25 to 50 µM | 14 µM | 1.5 to 10 µM | 7 µM | 4 µM | 3.8 µM | > 50 µM | > 100 µM | > 100 µM | > 100 µM | > 100 µM | > 100 µM | > 100 µM | > 100 µM | > 100 µM | > 100 µM | > 100 µM | > 100 µM | 1.5 to 10 µM | 13 µM | CC50 (in vitro; CC50, MDCK cells, run with Influenza A H1N1 California/07/2009, Neutral Red): > 100 µM; CC50 (in vitro; CC50, MDCK cells, run with Influenza A H1N1 California/07/2009, VYR/Neutral Red): > 100 µM; CC50 (in vitro; CC50, MDCK cells, run with Influenza A H1N1 California/07/2009, Visual): > 100 µM; CC50 (in vitro; CC50, MDCK cells, run with Influenza A H3N2 Perth/16/2009, Neutral Red): > 100 µM; CC50 (in vitro; CC50, MDCK cells, run with Influenza A H3N2 Perth/16/2009, VYR/Neutral Red): > 100 µM; EC50 [4]: > 50 µM; EC50 [5]: > 50 µM; EC50 (H3N2 Perth/16/2009 [6]; [28]): 25 to 50 µM; EC50 (H3N2 Perth/16/2009 [6]; [29]): 22 µM; EC50 (H3N2 Perth/16/2009 [6]; [30]): > 100 µM; EC90 (H3N2 Perth/16/2009 [6]; Influenza A H3N2 Perth/16/2009): > 100 µM; EC50 (H3N2 Perth/16/2009 [6]; Influenza A H3N2 Perth/16/2009, Neutral Red, read-out: EC50): 33 µM; EC90 ([7]; Influenza A H1N1 California/07/2009): 6.4 µM; EC90 ([7]; Influenza A H3N2 Perth/16/2009): > 100 µM; EC50 (H7N9 A/Anhui/1/2013): > 50 µM; EC50 [8]: 29 µM
2 | CCCC[C@H](NC(C)=O)C(=O)N[C@@H](CC(=O)O)C(=O)N[C@H](C(=O)N[C@@H](CC(N)=O)C(=O)N[C@@]1(C)CCCC=CCCC[C@@](C)(C(=O)N[C@@H](CC(C)C)C(=O)N[C@@H](C)C(=O)N[C@H](C(=O)N[C@@H](CCC(N)=O)C(=O)NC(C)(C)C(=O)N[C@@H](C)C(=O)N[C@@H](C)C(=O)N[C@@H](C)C(N)=O)C(C)C)NC(=O)[C@H](CC(C)C)NC(=O)[C@H](CC(C)C)NC(=O)[C@H]([C@@H](C)O)NC1=O)C(C)C [SP-21] (Ac-[Nle]DVN[S5]TLL[S5]LAVQ[Aib]AAA-NH2; staple 5-9) | < 1.5 µM | 0.54 µM | 1.5 to 10 µM | 21 µM | 9.6 µM | 4.6 µM | > 50 µM | > 100 µM | > 100 µM | > 100 µM | > 100 µM | > 100 µM | > 100 µM | > 100 µM | > 100 µM | > 100 µM | > 100 µM | > 100 µM | < 1.5 µM | 4.8 µM | CC50 (in vitro; CC50, run with Influenza A H1N1 California/07/2009, Visual): > 100 µM; EC50 (H1N1 California/07/2009 [3]; Influenza A H1N1 California/07/2009, Drug Assay Visual, read-out: EC50): 1.3 µM; EC50 [5]: 39 µM; EC50 (H3N2 Perth/16/2009 [6]; [28]): 1.5 to 10 µM; EC50 (H3N2 Perth/16/2009 [6]; [29]): 2.1 µM; EC50 (H3N2 Perth/16/2009 [6]; [30]): 4.8 µM; EC90 (H3N2 Perth/16/2009 [6]; Influenza A H3N2 Perth/16/2009): 8 µM; EC50 (H7N9 A/Anhui/1/2013): 17 µM; EC50 [8]: 5.3 µM
